Molecules are shown by their SMILES. Counter-ions that a name gives are not always drawn.

In turn, `CCOP(=O)(Nc1cccc([C@@H](CN2CCCC2)N(C)C(=O)Cc2ccc(Cl)c(Cl)c2)c1)OCC` (as salt: hydrochloride) [Example 3g, 2-(3,4-Dichlorophenyl)-N-methyl-N-[(1S)-1-[3-(diethyl Phosphoryl)amino]phenyl)-2-(1-pyrrolidinyl)ethyl]acetamide hydrochloride] displayed a melting point of 140 to 142 °C.
For `CN(C(=O)Cc1ccc(Cl)c(Cl)c1)[C@H](CN1CCCC1)c1cccc(NC(=O)CCC(=O)NCC(=O)O)c1` (as salt: hydrochloride) [Example 3j, 2-(3,4-Dichlorophenyl)-N-methyl-N-{(1R,S)-1-[3-(3-(((hydroxycarbonyl)-methyl)aminocarbonyl)propionamido)phenyl]-2-(1-pyrrolidinyl)ethyl}acetamide hydrochloride], the melting point is 158 °C (dec.).
As for `COC(=O)CNC(=O)c1ccccc1CC(=O)N(C)[C@H](CN1CCCC1)c1ccccc1` (as salt: hydrochloride) [Example 3mm, Methyl N-[2-(2-pheny)-N-methyl-N-{[1S]-1-phenyl-2-(1-pyrrolidinyl)ethyl}acetamido]2-oxo-glycinate hydrochloride], the melting point was in the range of 204 to 206 °C.
Under `CN(C(=O)Cc1ccccc1NS(C)(=O)=O)[C@H](CN1CCCC1)c1cccc(NS(C)(=O)=O)c1` (as salt: hydrochloride) [Example 3pp, 2-(2-Methanesulfonamidophenyl)-N-methyl-N-[(1S)-1-(3-methanesulfon-amidophenyl)-2-(1-pyrrolidinyl)ethyl]acetamide Hydrochloride] stands 160 °C (dec.); under `COc1cc(CC(=O)N(C)[C@H](CN2CCCC2)c2ccccc2)c(S(=O)(=O)N(C)Cc2ccccc2)cc1OC` (as salt: hydrochloride) [Example 3xx, 2-(2-N-Benzyl-2-N-methylsulfamoyl-3,4-dimethoxyphenyl)-N-methyl-N-[(1S)-1-phenyl-2-(1-pyrrolidinyl)ethyl]acetamide hydrochloride], 188 to 190 °C; under `CCOC(=O)/C=C/C(=O)Nc1cc(Cl)c(Cl)cc1CC(=O)N(C)[C@H](CN1CCCC1)c1ccccc1` (as salt: hydrochloride) [Example 3y, (E) Ethyl 4-[2-(2-amino-4,5-dichlorophenyl)-N-methyl-N-[(1S)-1-phenyl)-2-[1-pyrrolidinyl]ethyl]acetamido]4-oxo-2-butenoate hydrochloride], 165 to 167 °C (dec.).
In turn, `COc1ccc(CC(=O)N(C)[C@H](CN2CCCC2)c2ccccc2)cc1NS(C)(=O)=O` (as salt: methane sulfonate) [Example 122, 2-(3-N-Methylsulfonamido-3-amino-4-methoxyphenyl)-N-methyl-N-[(1S)-1-phenyl-2-(1-pyrrolidinyl)ethyl]acetamide methane sulfonate] returned a melting point of 149 to 151 °C.
Under `CN(C(=O)Cc1ccc(O)c(N(S(C)(=O)=O)S(C)(=O)=O)c1)[C@H](CN1CCCC1)c1ccccc1` (as salt: salt) [Example 130, 2-(3-N-Bis-methylsulfonamido-3-amino-4-hydroxyphenyl)-N-methyl-N-[(1S)-1-phenyl-2-(1-pyrrolidinyl)ethyl]acetamide] stands 197 to 199 °C.
In the case of `CN(C(=O)Cc1cc2c(cc1S(=O)(=O)N(C)Cc1ccccc1)OCO2)[C@H](CN1CCCC1)c1ccccc1` (as salt: salt) [Example 131, 2-[2-(N-Benzyl-N-methylsulfamoyl)-4,5-methylenedioxyphenyl]-N-methyl-N-[(1S)-1-phenyl-2-[(1-pyrrolidinyl)ethyl]]acetamide] it was 236 to 238 °C; in that of `COc1cc(CC(=O)N(C)[C@H](CN2CC[C@H](O)C2)c2ccccc2)c(S(=O)(=O)N2CCCC2)cc1OC` (as salt: salt) [Example 135, 2-[2-(N-Pyrrolidinesulfamoyl)-4,5-dimethoxyphenyl]-N-methyl-N-[(1S)-1-phenyl-2-[1-(3S)-(3-hydroxypyrrolidinyl)ethyl]]acetamide], > 120 °C (dec.); in that of `CC(C)C(=O)Nc1cccc([C@@H](CN2CCCC2)N(C)C(=O)Cc2ccccc2NC(=O)C(C)C)c1` (as salt: sulfonic acid salt) [Example 3qq, 2-(2-Iso-butyramidophenyl)-N-methyl-N-[(1S)-1-(3-isobutyramido-phenyl)-2-(1-pyrrolidinyl)ethyl]acetamide Methanesulfonic acid salt], 143 to 145 °C.
In the case of `CN(C(=O)Cc1cc(Cl)c(Cl)cc1NC(=O)/C=C\C(=O)O)[C@H]1CCCC[C@@H]1N1CCCC1` (racemic) it was 246 to 248 °C (dec.).
In turn, `CNS(=O)(=O)c1cccc(CC(=O)N(C)[C@@H]2CCCC[C@H]2N2CCCC2)c1OC.Cl` (racemic) returned a melting point of 168 to 170 °C.
Molecule `CN(C(=O)Cc1ccccc1NS(C)(=O)=O)[C@@H]1CCCC[C@H]1N1CCCC1.Cl` (racemic) had a melting point of 229 to 231 °C.
In the case of `CN(C(=O)Cc1ccc(S(C)(=O)=O)cc1)[C@@H]1CCCC[C@H]1N1CCCC1.Cl` (racemic) it was 152 to 154 °C (dec.).
In the case of `COc1cc2c(cc1S(=O)(=O)N(C)Cc1ccccc1)[C@@H](N(C)C(=O)Cc1ccc(Cl)c(Cl)c1)[C@H](N1CCCC1)CC2` (racemic) (as salt: HCl) it was 150 °C (dec.).
Under `CN(C(=O)Cc1ccc(Cl)c(Cl)c1)[C@@H]1c2cc(S(=O)(=O)N(C)Cc3ccccc3)ccc2CC[C@H]1N1CCCC1` (racemic) (as salt: HCl) stands 251 to 254 °C; under `CN(C(=O)Cc1cc(Cl)c(Cl)cc1[N+](=O)[O-])[C@@H]1c2ccccc2C[C@H]1N1CCCC1` (racemic) (as salt: HCl), 284 to 287 °C.
Turning to `CN(C(=O)Cc1ccc(C(F)(F)F)cc1[N+](=O)[O-])[C@@H]1c2ccccc2C[C@H]1N1CCCC1` (racemic) (as salt: HCl), the melting point lay in the range of 249 to 250 °C.
Under `CN(C(=O)C(c1ccccc1)c1ccccc1)[C@@H]1c2ccccc2C[C@H]1N1CCCC1` (racemic) (as salt: HCl) stands above 300 °C; under `CN(C(=O)Cc1ccc(S(C)(=O)=O)cc1)[C@@H]1c2ccccc2C[C@H]1N1CCCC1` (racemic) (as salt: HCl), 246 to 248 °C.
For the molecule `CN(C(=O)C(c1ccccc1)c1ccccc1)C1CCCCC1N1CCCC1` (racemic) (as salt: HCl) [Example 5s, (±)-trans-N-Methyl-N-[2-(1-pyrrolidinyl)cyclohexyl]2,2-dphenylacetamide Hydrochloride], the melting point is 295 to 297 °C (dec.).
In turn, `CS(=O)(=O)c1ccc(CC(=O)N2CCN(S(C)(=O)=O)CC2CN2CCCC2)cc1` (racemic) (as salt: hydrochloride) [(R,S-8b), (R,S)-4-Methanesulfonyl-1-[(4-methylsulfonylphenyl)acetyl]-2-[(1-pyrrolidinyl)-methyl]piperazine hydrochloride] displayed a melting point of 185 to 188 °C.
Under `CS(=O)(=O)N1CCN(C(=O)Cc2c[nH]c3ccccc23)C(CN2CCCC2)C1` (racemic) (as salt: hydrochloride) [(R,S-8e), (R,S)-4-Methanesulfonyl-1-[(3-indolylacetyl-2-[(1-pyrrolidinyl)-methyl]piperazine hydrochloride] stands 219 to 221 °C.
`COC(=O)N1CCN(C(=O)Cc2ccc(S(C)(=O)=O)cc2)C(CN2CCCC2)C1` (racemic) (as salt: hydrochloride) [(R,S-9a), (R,S)-Methyl 4-[(4-methylsulfonylphenyl)acetyl]-3-[(1-pyrrolidinyl)-methyl]-1-piperazinecarboxylate hydrochloride] registered a melting point of 225 °C.
In the case of `COC(=O)N1CCN(C(=O)Cc2ccc(C(F)(F)F)cc2)C(CN2CCCC2)C1` (racemic) (as salt: hydrochloride) [(R,S-9b), (R,S)-Methyl 4-[(4-trifluoromethylphenyl)acetyl]-3-[(1-pyrrolidinyl)-methyl]-1-piperazinecarboxylate hydrochloride] it was 210 °C; in that of `COC(=O)N1CCN(C(=O)Cc2c[nH]c3ccccc23)C(CN2CCCC2)C1` (racemic) (as salt: hydrochloride) [(R,S-9c), (R,S)-Methyl 4-[(3-indolyl)acetyl]-3-[(1-pyrrolidinyl)-methyl]-1-piperazine-carboxylate hydrochloride], 143 °C.
Under `COC(=O)N1CCN(C(=O)Cc2ccccc2[N+](=O)[O-])C(CN2CCCC2)C1` (racemic) (as salt: hydrochloride) [(R,S-9d), (R,S)-Methyl 4-[(2-nitrophenyl)acetyl]-3-[(1-Pyrrolidinyl)-methyl]-1-piperazine-carboxylate hydrochloride] stands 228 °C; under `COC(=O)N1CCN(C(=O)Cc2ccccc2OC)C(CN2CCCC2)C1` (racemic) (as salt: hydrochloride) [(R,S-9e)], 120 °C.
With `COC(=O)N1CCN(C(=O)Cc2ccccc2N)C(CN2CCCC2)C1` (racemic) (as salt: hydrochloride) [(R,S-9f), (R,S)-Methyl 4-[(2-aminophenyl)acetyl]-3-[(1-pyrrolidinyl)-methyl]-1-piperazine-carboxylate dihydrochloride], the melting point was 195 °C (dec.).
As for `CC(=O)N1CCN(C(=O)Cc2ccc(S(C)(=O)=O)cc2)C(CN2CCCC2)C1` (racemic) (as salt: hydrochloride) [(R,S-10a)], the melting point was in the range of 145 to 147 °C.
In the case of `CC(=O)N1CCN(C(=O)Cc2ccc(C(F)(F)F)cc2)C(CN2CCCC2)C1` (racemic) (as salt: hydrochloride) [(R,S-10b)] it was 110 °C; in that of `CC(=O)N1CCN(C(=O)Cc2cccc([N+](=O)[O-])c2)C(CN2CCCC2)C1` (racemic) (as salt: hydrochloride) [(R,S-10d), (R,S)-4-Acetyl-1-[(3-nitrophenyl)acetyl]-3-[(1-pyrrolidinyl)-methyl]piperazine-carboxylate hydrochloride], 143 to 145 °C; in that of `CC(=O)N1CCN(C(=O)Cc2ccccc2[N+](=O)[O-])C(CN2CCCC2)C1` (racemic) (as salt: hydrochloride) [(R,S-10e), (R,S)-4-Acetyl-1-[(2-nitrophenyl)acetyl]-3-[(1-pyrrolidinyl)-methyl]piperazine-carboxylate hydrochloride], 180 °C (dec.).

By melting point is commonly meant the temperature of the solid-liquid transition.

(Values after patent publication US20050020576A1, “Kappa agonist compounds and pharmaceutical formulations thereof” (priority 1996, published 2005).)
